What was measured:
[1] = Physical stability study of spray-dried amorphous APIs stored at 75% RH, 25 °C (solid state by Raman, MDSC, PXRD); type: physicochemical; settings: for Estimated Amorphous Content at Day 168 / Crystal Growth / Crystallization Initiation Propensity / Time to Complete Crystallization / Time to Start Crystallization: 75% RH at 25 °C; for Estimated Amorphous Content at Day 168: semi-quantitative Raman analysis; for Stability for 168 Days at 75% RH / Crystal Growth / Crystallization Initiation Propensity / Time to Complete Crystallization / Time to Start Crystallization: spray-dried amorphous API; for Stability for 168 Days at 75% RH: 25 °C; for Time to Complete Crystallization / Time to Start Crystallization: up to 168 days
Experimental: The amorphous solids were prepared by spray-drying. In short, solutions containing the APIs of interest were prepared by dissolving the crystalline powder in either ethanol, acetone, or a mixture of 90:10 (% w/w) ethanol/acetone prior to spray-drying. Any unwanted debris and particulate contaminants were removed by filtration (0.45 µm pore size). Thereafter, the solutions were spray-dried using a Büchi B-290-Mini Spray Dryer with an inert loop (Büchi Laboratoriums, Flawil, Switzerland) according to the processing parameters previously described by Edueng et al.. After spray-drying, the collected solids were divided and kept in two different wide-mouth aluminum containers. These open containers were placed in a vacuumed desiccator overnight to remove any residual solvent. The vacuum-dried solids were subsequently characterized with different solid-state analytical methods, studied for their supersaturation behavior, and stored in the stability chamber for 168 days (6 months). Following the overnight vacuum-drying, the spray-dried materials were placed in a stability chamber with a 75% relative humidity level and constant temperature of 25 °C. The samples were stored in open wide-mouth aluminum containers. Samples were withdrawn from the stability chamber at 1, 2, 7, 14, 28, 84, and 168 day(s) for the solid-state analyses. These analyses monitored the physical stability of the amorphous API, and the supersaturation study investigated the impact of solid-state changes on the supersaturation potential and crystallization kinetics. The preparation of these materials and the physical stability protocol are described in detail in Edueng et al..
A Twin-Twin (Bruker, Coventry, UK) measuring in Bragg–Brentano geometry and equipped with a sample rotator was used to collect the X-ray diffractograms of the unprocessed crystalline and freshly spray-dried APIs. The solid samples were gently ground with a mortar and pestle when the powder was too coarse. Thereafter, they were placed on silicon sample holders which rotated at 40 rpm during the measurement. The X-ray source was a rotating copper anode with an accelerating voltage of 40 kV and current of 40 mA. The emitted Cu Kα radiation (λ = 1.54 Å) was used in the measurements. A diffraction pattern in the 2Ө range between 5° and 40° was collected at a scanning step of 0.01° and 0.3 s exposure time at each step. Primary and secondary divergence slits of 0.40 and 2.48 mm, respectively, were used. Since this technique provides a more direct interpretation regarding the amorphous and/or crystalline content of samples, it was used to ensure that the spray-dried APIs were fully amorphous prior to the initiation of other analyses. Based on this information, the reference Raman spectra for the fully amorphous and fully crystalline samples of each compound could be established.
Modulated differential scanning calorimetry (MDSC) was performed to identify and monitor the solid-state form changes of the solids (amorphous, crystalline, or a mixture of both) and to determine the temperatures of glass transition (Tg), crystallization (Tc), and melting (Tm). Approximately 1–5 mg of sample was weighed and transferred into standard aluminum pans. The lids were pin-holed to allow evaporation of any solvent or moisture. Depending on the Tg, the samples were equilibrated at either −70 °C or 0 °C to allow for at least a 20 °C baseline prior to the Tg measurement, followed by heating up to 20–30 °C above the Tm at 3 °C/min and a temperature modulation of ±1 °C every 60 s. Analyses and integrations of the thermograms were performed using TA Instruments Universal Analysis 2000 for Windows (Version 4.5A, Sollentuna, Sweden) software.
In addition to MDSC, the samples were examined by Raman spectroscopy using a Rxn-2 Hybrid Raman Spectrometer (Kaiser Optical System Inc., Ann Arbor, MI, USA). […]

[2] = In vitro supersaturation under non-sink conditions (µDISS Profiler, tenfold supersaturation ratio, spray-dried solids); type: physicochemical; settings: for RAUC (AUC ratio spray-dried/crystalline) / RCmax,app (Cmax,app ratio spray-dried/crystalline): tenfold supersaturation ratio, phosphate buffer pH 6.5, 37 °C, 60 min; for Ratio AUC (RAUC) / Ratio Cmax (RCmax,app): pH 6.5, 37 °C
Experimental: The protocol is described in Edueng et al.. In short, the experiment was initiated by constructing a standard curve (R^2 ≥ 0.97) covering the possible concentrations attained from the supersaturation. […] For this purpose, a small-scale dissolution apparatus, the µDISS Profiler (pION Inc., Billerica, MA, USA), was used. The temperature and stirring rate were maintained at 37 °C and 100 rpm, respectively, and the supersaturation behavior was monitored for 60 min. The experiments were conducted in triplicate for each sample type.
The effects of physical aging and/or crystallization upon storage on the performance at tenfold supersaturation were assessed on the basis of the following parameters: (i) the apparent maximum concentration achieved (Cmax,app); (ii) the area under the curve (AUC); and (iii) the crystallization rate constant (k) (see Figure 9). Cmax,app refers to the maximum supersaturation concentration attained by dissolving amorphous solid in the medium before a decline in concentration was observed. […] The crystallization rate constant (k) defines the rate at which a decrease in concentration was observed. It gives an indication of the crystallization rate upon dissolution and is expressed as the reciprocal of the x-axis time units.
These three parameters were determined using GraphPad Prism version 8.1.0 for Windows (GraphPad Software, San Diego, CA, USA). Cmax,app was obtained by determining descriptive statistics of the tabulated dissolution data. It corresponds to the maximum value or highest point in the dissolution data (referred to as “maximum” in the Graphpad software). The AUC was computed based on the trapezoidal rule. The Cmax,app and AUC of the fresh and the aged/crystallized spray-dried samples were divided by the Cmax,app and AUC of the crystalline samples to obtain the ratios of both parameters (see Equations (1) and (2)). The ratios were then referred to as RCmax,app and RAUC, respectively. The crystallization was approximated following first-order kinetics, leading to Equation (3). The k value was determined by performing a nonlinear curve fitting of Equation (3) from the time point of Cmax,app of the supersaturation profiles of the samples using the same software. (1) RCmax,app=Cmax,SD/Cmax,cryst (2) RAUC=AUCSD/AUCcryst (3) C(t)=(C0−C∞)·e^−k·t+C∞
In Equation (3), C0 is the fitted concentration at t = 0, C∞ is the estimated concentration at infinite time, and k is the rate constant. In our study, the concentration is expressed in µg/mL while k is expressed in min^−1.

[3] = aged and/or crystallized spray-dried (SD Tn, stored at 75% RH)
[4] = spray-dried samples (fresh and aged), as summarised in text from Figures 2 and 3
[5] = 2-day sample (SD T2D; 23% crystalline) stored at 75% RH
[6] = 2-day-old sample containing 23% crystallinity
[7] = 7-day sample (SD T7D; completely crystalline) stored at 75% RH

| Estimated Amorphous Content at Day 168 [1] | Stability for 168 Days at 75% RH [1] | Crystal Growth [1] | Crystallization Initiation Propensity [1] | Time to Complete Crystallization [1] | Time to Start Crystallization [1] | RAUC (AUC ratio spray-dried/crystalline) [2, 3] | RCmax,app (Cmax,app ratio spray-dried/crystalline) [2, 3] | RAUC (AUC ratio spray-dried/crystalline) ([2]; freshly spray-dried (SD T0)) | RCmax,app (Cmax,app ratio spray-dried/crystalline) ([2]; freshly spray-dried (SD T0)) | Compound | other results |
| --- | --- | --- | --- | --- | --- | --- | --- | --- | --- | --- | --- |
| 94% | Moderate | Slow | High | >168 days | 1 days | 4.4 | 7.6 | 4.1 | 7.2 | COc1ccc(Cl)cc1C(=O)NCCc1ccc(S(=O)(=O)NC(=O)NC2CCCCC2)cc1 [Glibenclamide, glibenclamide] | Estimated Amorphous Content at Day 168 ([1]; listed as glibenclamide): approximately 94%; Estimated crystalline content ([1]; after 168 days at 75% RH): 6%; RAUC, times higher than the crystalline counterparts [2, 4]: ~4 times; RCmax,app, times higher than the crystalline counterparts [2, 4]: approximately 7 times |
| 0% | Low | Rapid | High | 1 days | 1 days |  |  |  |  | NS(=O)(=O)c1cc2c(cc1Cl)NCNS2(=O)=O [Hydrochlorothiazide, hydrochlorothiazide] |  |
| 100% | High |  | Low | >168 days | >168 days | 2.1 | 2.5 | 1.9 | 2.3 | CC1Cc2ccccc2N1NC(=O)c1ccc(Cl)c(S(N)(=O)=O)c1 (centres unmarked) [Indapamide, indapamide] | Time to Start Crystallization ([1]; listed as indapamide): ≥ 168 days |
| 100% | High |  | Low | >168 days | >168 days | 1.8 | 2.8 | 1.5 | 2.8 | Cc1ccccc1N1C(=O)c2cc(S(N)(=O)=O)c(Cl)cc2NC1C (centres unmarked) [Metolazone, metolazone] | Time to Start Crystallization ([1]; listed as metolazone): ≥ 168 days |
| 0% | Low | Rapid | High | 1 days | 1 days | 1.5 | 1.5 | 1.5 | 1.6 | Nc1ccc(S(=O)(=O)Nc2nccs2)cc1 [Sulfathiazole, sulfathiazole] |  |
| ~89% | Moderate | Slow | High |  | 1 days |  |  |  |  | C[C@]12CCC(=O)C=C1CC[C@@H]1[C@@H]2[C@@H](O)C[C@@]2(C)[C@H]1CC[C@]2(O)C(=O)CO [Hydrocortisone, hydrocortisone] | Estimated crystalline content ([1]; after 168 days at 75% RH): 11% |

| Compound | Estimated Amorphous Content at Day 168 [1] | Stability for 168 Days at 75% RH [1] | Crystal Growth [1] | Crystallization Initiation Propensity [1] | Time to Complete Crystallization [1] | Time to Start Crystallization [1] | RAUC (AUC ratio spray-dried/crystalline) [2, 3] | RCmax,app (Cmax,app ratio spray-dried/crystalline) [2, 3] | RAUC (AUC ratio spray-dried/crystalline) ([2]; freshly spray-dried (SD T0)) | RCmax,app (Cmax,app ratio spray-dried/crystalline) ([2]; freshly spray-dried (SD T0)) | other results |
| --- | --- | --- | --- | --- | --- | --- | --- | --- | --- | --- | --- |
| CC(=O)N1CCN(c2ccc(OCC3COC(Cn4ccnc4)(c4ccc(Cl)cc4Cl)O3)cc2)CC1 (centres unmarked) [Ketoconazole, ketoconazole] | 0% | Low | Rapid | High | 7 days | 1 days | 0.8 | 1.1 | 1.6 | 2.0 | Estimated crystalline content ([1]; 2-day sample (T2D) at 75% RH): 23%; Ratio AUC (RAUC) [2, 5]: 0.7; Ratio Cmax (RCmax,app) [2, 5]: 0.9; Decrease of AUC ratio versus fresh sample [2, 6]: 50%; Decrease of Cmax ratio (Cmax,app) versus fresh sample [2, 6]: 50%; Ratio AUC (RAUC) [2, 7]: 0.8; Ratio Cmax (RCmax,app) [2, 7]: 1.1; Decrease of RCmax,app versus fresh sample ([2]; completely crystallized spray-dried sample): 50% |
